The first experiment has as its target T1, VEGFR2 (KDR) (Homo sapiens, UniProt P35968).
T1 construct: made in house; host or cells: Sf9 cells (Spodoptera frugiperda), baculovirus (Bac-to-Bac)
The experiment in a line: In vitro receptor tyrosine kinase assay (VEGF receptor KDR), DELFIA. Type of experiment: biochemical. The note with it: recombinant GST-VEGFR2 catalytic domain, ATP 0.6 uM, enzyme 5 nM. The source says: In Vitro Receptor Tyrosine Kinase Assay (VEGF Receptor KDR)
This test measures the ability of compounds to inhibit the enzymatic activity of recombinant human VEGF receptor enzymatic activity.
A 1.6-kb cDNA corresponding to the catalytic domain of VEGFR2 (KDR) (Genbank accession number AF035121 amino acid 806 to 1356) is cloned into the Pst I site of the pDEST20 Gateway vector (Invitrogen) for the production of a GST-tagged version of that enzyme. This constuct is used to generate recombinant baculovirus using the Bac-to-Bac™ system according to the manucfacturer's instructions (Invitrogen).
The GST-VEGFR2806-1356 protein is expressed in Sf9 cells (Spodoptera frugiperda) upon infection with recombinant baculovirus construct. Briefly, Sf9 cells grown in suspension and maintained in serum-free medium (Sf900 II supplemented with gentamycin) at a cell density of about 2×10^6 cells/ml are infected with the above-mentioned viruses at a multiplicity of infection (MOI) of 0.1 during 72 hours at 27° C. with agitation at 120 rpm on a rotary shaker. Infected cells are harvested by centrifugation at 398 g for 15 min. Cell pellets are frozen at −80° C. until purification is performed.
All steps described in cell extraction and purification are performed at 4° C. Frozen Sf9 cell pellets infected with the GST-VEGFR2806-1356 recombinant baculovirus are thawed and gently resuspended in Buffer A (PBS pH 7.3 supplemented with 1 μg/ml pepstatin, 2 μg/ml Aprotinin and leupeptin, 50 μg/ml PMSF, 50 μg/ml TLCK and 10 μM E64 and 0.5 mM DTT) using 3 ml of buffer per gram of cells. Suspension is Dounce homogenized and 1% Triton X-100 is added to the homogenate after which it is centrifuged at 22500 g, 30 min., 4° C. The supernatant (cell extract) is used as starting material for purification of GST-VEGFR2806-1356.
The supernatant is loaded onto a GST-agarose column (Sigma) equilibrated with PBS pH 7.3. Following a four column volume (CV) wash with PBS pH 7.3+1% Triton X-100 and 4 CV wash with buffer B (50 mM Tris pH 8.0, 20% glycerol and 100mM NaCl), bound proteins are step eluted with 5 CV of buffer B supplemented with 5 mM DTT and 15 mM glutathion. GST-VEGFR2806-1356 enriched fractions from this chromatography step are pooled based on U.V. trace i.e. fractions with high O.D.280. Final GST-VEGFR2806-1356 protein preparations concentrations are about 0.7 mg/ml with purity approximating 70%. Purified GST-VEGFR2806-1356 protein stocks are aliquoted and frozen at −80° C. prior to use in enzymatic assay.
Inhibition of VEGFR/KDR is measured in a DELFIA™ assay (Perkin Elmer). The substrate poly(Glu4, Tyr) is immobilized onto black high-binding polystyrene 96-well plates. The coated plates are washed and stored at 4° C. During the assay, the enzyme is pre-incubated with inhibitor and Mg-ATP on ice in polypropylene 96-well plates for 4 minutes, and then transferred to the coated plates. The subsequent kinase reaction takes place at 30° C. for 10-30 minutes. ATP concentrations in the assay are 0.6 uM for VEGFR/KDR (2× the Km). Enzyme concentration is 5 nM. After incubation, the kinase reactions are quenched with EDTA and the plates are washed. Phosphorylated product is detected by incubation with Europium-labeled anti-phosphotyrosine MoAb. After washing the plates, bound MoAb is detected by time-resolved fluorescence in a Gemini SpectraMax reader (Molecular Devices). Compounds are evaluated over a range of concentrations and IC50's (concentration of compounds giving 50% inhibition of enzymatic activity) are determined. In the table, “a” indicates inhibitory activity at a concentration of less than 250 nanomolar; “b” indicates inhibitory activity at a concentration ≧250 but <500 nanomolar, “c” indicates inhibitory activity at ≧500 but <1000 nanomolar; and “d” indicates inhibitory activity ≧1000 nanomolar.
T1 sequence (P35968 806-1356): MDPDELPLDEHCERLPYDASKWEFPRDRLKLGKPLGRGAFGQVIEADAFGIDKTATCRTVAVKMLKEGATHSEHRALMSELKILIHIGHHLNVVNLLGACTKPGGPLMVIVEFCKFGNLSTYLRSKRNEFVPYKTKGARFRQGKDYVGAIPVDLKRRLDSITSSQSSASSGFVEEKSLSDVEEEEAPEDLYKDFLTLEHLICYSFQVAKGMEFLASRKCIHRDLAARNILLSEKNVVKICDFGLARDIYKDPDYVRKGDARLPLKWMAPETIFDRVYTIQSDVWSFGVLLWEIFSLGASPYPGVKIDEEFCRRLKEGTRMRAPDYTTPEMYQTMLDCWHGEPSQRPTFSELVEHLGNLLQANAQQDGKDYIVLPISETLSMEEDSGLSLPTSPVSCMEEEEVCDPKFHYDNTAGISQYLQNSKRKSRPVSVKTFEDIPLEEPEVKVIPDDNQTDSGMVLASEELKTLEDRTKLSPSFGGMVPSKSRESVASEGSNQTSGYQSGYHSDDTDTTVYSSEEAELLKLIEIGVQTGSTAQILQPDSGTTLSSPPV
As for `COCCN(Cc1ccc(-c2cc3nccc(Oc4ccc(NC(=O)Nc5cccc(C(N)=O)c5)cc4F)c3s2)nc1)C(=O)OC` [drawing 160], the half-inhibitory concentration (IC50) is less than 250 nM.

The next experiment relates to VEGF-dependent Erk phosphorylation in HUVEC cells. The experiment can be described thus: VEGF-dependent Erk phosphorylation. Type of experiment: cell-based. The note with it: Homo sapiens, 1.5 h compound, VEGF165 150 ng/ml, phospho ERK1/2 Western blot. The source says:
VEGF-Dependent Erk Phosphorylation
HUVEC cells were purchased from Cambrex Bio Science Walkersville, Inc and cultured according to the vendor's instructions. The full-length coding sequence of VEGF165 was cloned using the Gateway Cloning Technology (Invitrogen) for baculovirus expression Sf9 cells. VEGF165 was purified from conditioned media using a NaCl gradient elution from a HiTrap heparin column (GE Healthcare Life Sciences) followed by an imidazole gradient elution from a HiTrap chelating column (GE Healthcare Life Sciences), then buffer stored in PBS supplemented with 0.1% BSA and filter sterilized
Cells were seeded at 8000 cells/well of a 96 wells plate and grown for 48 hours. Cells were then grown overnight in serum and growth factor-free medium and exposed for 1.5 h to compounds dilutions. Following a 15 min incubation in medium, VEGF165 (150 ng/ml) cells were lysed in ice-cold lysis buffer (50 mM HEPES, pH 7.4, 150 mM NaCl, 1.5 mM MgCl2, 1% Triton X-100, 10% glycerol) containing 1 mM 4-(2 aminoethyl)benzenesulfonyl fluoride hydrochloride, 200 μM sodium orthovanadate, 1 mM sodium fluoride, 10 μg/mL leupeptin, 10 μg/mL aprotinin, 1 μg/mL pepstatin and 50 μg/mL Na-p-tosyl-L-lysine chloromethyl ketone hydrochloride and processed as Western blots to detect anti-phospho ERK1/2 (T202/Y204) (Cell Signaling Technologies).
lysates samples from single treatment wells were separated on 5-20% SDS-PAGE gels and immunobloting was performed using Immobilon polyvinylidene difluoride membranes (Amersham) according to the manufacturer's instructions.
For `COCCN(Cc1ccc(-c2cc3nccc(Oc4ccc(NC(=O)Nc5cccc(C(N)=O)c5)cc4F)c3s2)nc1)C(=O)OC` [drawing 160], the concentration for half-maximal inhibition (IC50) was less than 250 nM.

For a further experiment, the system named is CNV progression. The experiment can be described thus: In vivo choroidal neovascularization (CNV) model. To be noted: 240 h; rat laser-induced CNV, 30 nmol/eye injection on Day 3, CNV area on Day 10 vs vehicle-treated group. More on the design: species or system Brown-Norway rats. The source says: In vivo Choroidal Neovascularization (CNV) Model
This test measures the capacity of compounds to inhibit CNV progression. CNV is the main cause of severe vision loss in patients suffering from age-related macular degeneration (AMD).
Male Brown-Norway rats (Japan Clea Co., Ltd.) were used in these studies.
Rats were anesthetized by intraperitoneal injection of pentobarbital, and the right pupil was dilated with 0.5% tropicamide and 0.5% phenylephrine hydrochloride. The right eye received 6 laser burns between retinal vessels using a slit lamp delivery system of Green laser Photocoagulator (Nidex Inc., Japan), and microscope slide glass with Healon™ (AMO Inc) used as a contact lens. The laser power was 100 or 200 mW for 0.1 second and spot diameter was 100 μm. At the time of laser burn, bubble production was observed, which is an indication of rupture of Bruch's membrane which is important for CNV generation.
Rats were divided into the groups based on their body weight using SAS software (SAS institute Japan, R8.1) after laser irradiation (Day 0). After animals were anesthetized, and the right pupil dilated (as above mentioned), the right eye of the animal received the compound or vehicle by an injection (10 μL/eye) at doses of 30 nmol/eye on Day 3. The compounds were dissolved or suspended in CBS, PBS, or other adequate vehicles before injection.
On Day 10, the animals were anesthetized with ether, and high molecular weight fluorescein isothiocyanate (FITC)-dextran (SIGMA, 2×10^6 MW) was injected via a tail vein (20 mg/rat). About 30 min after FITC-dextran injection, animals were euthanized by ether or carbon dioxide, and the eyes were removed and fixed with 10% formaline neutral buffer solution. After over 1 hour of fixation, RPE-choroid-sclera flat mounts were obtained by removing cornea, lens and retina from the eyeballs. The flat mounts were mounted in 50% glycerol on a microscope slide, and the portion burned by laser was photographed using a fluorescence microscope (Nikon Corporation, excitation filter: 465-495 nm, absorption filter: 515-555 nm). The CNV area was obtained by measurement of hyper-fluorescence area observed on the photograph using Scion image.
The average CNV area of 6 burns was used as an individual value of CNV area, and the average CNV area of compound treated group was compared with that of the vehicle-treated group.
`COCCNCc1cnc(-c2cc3nccc(Oc4ccc(NC(=O)NC(C)C)cc4F)c3s2)n1C` [Compound 315, 1-(3-Fluoro-4-(2-(5-((2-methoxyethylamino)methyl)-1-methyl-1H-imidazol-2-yl)thieno[3,2-b]pyridin-7-yloxy)phenyl)-3-isopropylurea] yielded an inhibition in vivo at 30 nmol/eye not below 60%.

The compound `COCCOCCOCCOCCNCc1ccc(-c2cc3nccc(Oc4ccc(NC(=O)NC5CC5)cc4F)c3s2)nc1` [Compound 323, 1-(4-(2-(5-5,8,11,14-Tetraoxa-2-azapentadecylpyridin-2-yl)thieno[3,2-b]pyridin-7-yloxy)-3-fluorophenyl)-3-cyclopropylurea] returned an inhibition in vivo at 30 nmol/eye not below 60%.

For `N[C@@H](CCCCNCc1ccc(-c2cc3nccc(Oc4ccc(NC(=O)NC5CC5)cc4F)c3s2)nc1)C(=O)O` [Compound 324, (S)-2-amino-6-((6-(7-(4-(3-cyclopropylureido)-2-fluorophenoxy)thieno[3,2-b]pyridin-2-yl)pyridin-3-yl)methylamino)hexanoic acid], the inhibition in vivo at 30 nmol/eye was in the range of 40 to 60%.

`COCCOCCNCc1ccc(-c2cc3nccc(Oc4ccc(NC(=O)NC5CC5)cc4F)c3s2)nc1` [Compound 331, 1-Cyclopropyl-3-(3-fluoro-4-(2-(5-((2-(2-methoxyethoxy)ethylamino)methyl)pyridin-2-yl)thieno[3,2-b]pyridin-7-yloxy)phenyl)urea] returned an inhibition in vivo at 30 nmol/eye of 40 to 60%.

As for `O=C(Nc1ccc(Oc2ccnc3cc(-c4ccc(CN5CCCC5=O)cn4)sc23)c(F)c1)NC1CC1` [Compound 333, 1-cyclopropyl-3-(3-fluoro-4-(2-(5-((2-oxopyrrolidin-1-yl)methyl)pyridin-2-yl)thieno[3,2-b]pyridin-7-yloxy)phenyl)urea], the inhibition in vivo at 30 nmol/eye is not below 60%.

In the case of `COC[C@H](C)N(Cc1ccc(-c2cc3nccc(Oc4ccc(NC(=O)NC5CC5)cc4F)c3s2)nc1)C(C)=O` [Compound 335, (S)—N-((6-(7-(4-(3-cyclopropylureido)-2-fluorophenoxy)thieno[3,2-b]pyridin-2-yl)pyridin-3-yl)methyl)-N-(1-methoxypropan-2-yl)acetamide], the inhibition in vivo at 30 nmol/eye is 40 to 60%.

In turn, `COCCN(Cc1ccc(-c2cc3nccc(Oc4ccc(NC(=O)NC5CC5)cc4F)c3s2)nc1)C(=O)[C@H](N)C(C)C` [Compound 341, (R)-2-amino-N-((6-(7-(4-(3-cyclopropylureido)-2-fluorophenoxy)thieno[3,2-b]pyridin-2-yl)pyridin-3-yl)methyl)-N-(2-methoxyethyl)-3-methylbutanamide] had an inhibition in vivo at 30 nmol/eye not below 60%.

Consider `COCCN(Cc1cnc(-c2cc3nccc(Oc4ccc(NC(=O)NC5CC5)cc4F)c3s2)n1C)S(C)(=O)=O` [Compound 349, N-((2-(7-(4-(3-Cyclopropylureido)-2-fluorophenoxy)thieno[3,2-b]pyridin-2-yl)-1-methyl-1H-imidazol-5-yl)methyl)-N-(2-methoxyethyl)methanesulfonamide], for which the inhibition in vivo at 30 nmol/eye was not below 60%.

Consider `COCCNCc1cnc(-c2cc3nccc(Oc4ccc(NC(=O)Nc5ccc(F)cc5F)cc4F)c3s2)n1C` [Compound 351, 1-(2,4-difluorophenyl)-3-(3-fluoro-4-(2-(5-((2-methoxyethylamino)methyl)-1-methyl-1H-imidazol-2-yl)thieno[3,2-b]pyridin-7-yloxy)phenyl)urea], for which the inhibition in vivo at 30 nmol/eye was in the range of 40 to 60%.

Regarding `COCCNCc1cccc(-c2cc3nccc(Oc4ccc(NC(=O)Nc5cccc(P(C)(C)=O)c5)cc4F)c3s2)n1` [Compound 387, 1-(3-(dimethylphosphoryl)phenyl)-3-(3-fluoro-4-(2-(6-((2-methoxyethylamino)methyl)pyridin-2-yl)thieno[3,2-b]pyridin-7-yloxy)phenyl)urea], the inhibition in vivo at 30 nmol/eye lay within 40 to 60%.

The compound `COCCOCCOCCNCc1ccc(-c2cc3nccc(Oc4ccc(NC(=O)Nc5cccc(P(C)(C)=O)c5)cc4F)c3s2)nc1` [Compound 390, 1-(4-(2-(5-5,8,11-trioxa-2-azadodecylpyridin-2-yl)thieno[3,2-b]pyridin-7-yloxy)-3-fluorophenyl)-3-(3-(dimethylphosphoryl)phenyl)urea] had an inhibition in vivo at 30 nmol/eye of 40 to 60%.

The experiment is the same for the next values; noted with them: rat laser-induced CNV, 30 nmol/eye injection on Day 3, CNV area on Day 10 vs vehicle-treated group.
With `COCCNCc1cnc(-c2cc3nccc(Oc4ccc(NC(=O)NC5CC5)cc4F)c3s2)n1C` [Compound 348], the “Inhibition of CNV progression” value is “B (≧40% to <60% inhibition)”.

The record behind these values is patent US8759522B2, “Inhibitors of protein tyrosine kinase activity” (Methylgene Inc., priority 2008, dated 2014).
